# Results from patent US20260355180A1, “COMPOSITIONS AND METHODS FOR SPLICEOSOME-TARGETED THERAPIES” (Institute for Cancer Research d/b/a The Research Institute …, priority 2022, published 2026).
# Entries after “also recorded” stand apart in the source; their conditions may differ.
# Columns and labels:
# MEF Flag-ZBP1 cells [1] = assay: Survival of PlaB treated MEF Flag-ZBP1; format: cell-based, mouse
# Protocol: (§1) FIG. 16: Analysis of the effect of spliceosome inhibition on necroptosis in WT MEF cells. EV refers to cells treated with an empty vector.
# (§2) Since induction of Z-nAs can result in ZBP1-dependent necroptosis, we analyzed induction of necroptosis in necroptotic competent MEFs using spliceosome inhibition. […] We also determined that MEFs ΔZBP1, WT, and Flag-ZBP1 cells treated with PlaB began dying within 24hours after treatment. With MEF Flag-ZBP1 cells showing only 20% survival after 24 hours (FIG. 16).
# H446 cells [2] = assay: MAVS knock out rescue of PlaB-mediated cell death, H446; format: cell-based, human; details: MAVS KO H446; data not shown
# Excerpt: (§3) Currently, ZBP1 and ADAR1 are the only two known proteins harbor Zα and interact with Z-NAs^104-109.
# H82 SCLC cells [3] = assay: Antigen (HLA-ABC) and PD-L1 expression, H82; format: cell-based; details: 48 hours of 0.5 nM PlaB
# Excerpt: (§4) FIG. 3A-3D: SF3B1 inhibition induces a potent IFN response and increases expression of IFN-regulated proteins. […] Mean±SEM, two-tailed unpaired Student's t test *p<0.05, **p<0.01, ***p<0.001, ****p<0.0001.
# (§5) We also observed that SF3B1 inhibition triggers robust anti-tumor response and upregulates IFN-β, IFN-γ, and IFN-responsive genes by real-time reverse-transcription quantitative polymerase chain reaction (rRT-qPCR) in H446 and H82 cells (FIGS. 3A and 3B). […] These observations indicate that spliceosome inhibition is useful as a targeted therapy for SCLCs.
# H446 cells [4] = assay: Immunofluorescence of A-RNA (J2) and Z-NA (Z22), H446; format: cell-based, human
# Excerpt: (§6) FIG. 4A-4C: SF3B1 perturbation increases dsRNA and Z-nucleic acid levels in treated cells. […] (FIG. 4B) Quantification of A-RNA and Z-Nucleic acids. (FIG. 4C) Western blot showing induction of cleaved-PARP, pH2AX, and ZBP1, and the reduction of RIPK1 protein levels. Plots of signal intensity are mean±SEM, two-tailed unpaired Student's t test **p<0.01, ****p<0.0001.
# Our observations led us to explore what caused the elevated IFN response. We used an immunofluorescence (IF) technique to determine if A-RNA was increased after PlaB treatment.
# SCLC cell lines = assay: Western blot of cleaved-PARP, pH2AX, ZBP1 and RIPK1 (FIG. 4C); format: cell-based; details: 48 hours of PlaB
# Excerpt: as §6
# H446 SCLC cells [5] = assay: Antigen (HLA-ABC) and PD-L1 expression, H446; format: cell-based, human; details: 48 hours of 0.5 nM PlaB
# Excerpt: as §4, §5
# H82 SCLC cells [6] = assay: RIPK1 depletion rescue of PlaB cytotoxicity, H82; format: cell-based; details: 18 hours of PlaB, RIPK1 depleted H82
# Protocol: (§7) FIG. 2A) SCLC cell lines (H446 and H82) and immortalized fibroblasts (FC1010 and HS68) cell survival curves after 72 hours of PlaB treatment. FIG. 2B) RIPK1 depletion rescues H82 and H446 cell survival after 18 hours of PlaB treatment. FIG. 2C) Western blot showing RIPK1 protein depletion. Mean±SEM, Welch's t test *p<0.05, **p<0.01.
# (§8) Cancer deregulates splicing^31,32, and we hypothesized that hyper-proliferative SCLCs are dependent on splicing machineries for increased tumorigenicity^90.
# MEF Flag-ZBP1 cells [7] = assay: pMLKL western blot / necroptosis, MEF Flag-ZBP1; format: cell-based, mouse; details: 2.5 nM PlaB, 18 hours, MEF Flag-ZBP1 (full-length ZBP1)
# Protocol: (§9) FIG. 5A-5E: SF3B1 perturbation upregulates A-RNA and Z-nucleic acids in MEFs. (FIG. 5A) 5 nM of PlaB induces A-RNA and Z-Nucleic acids in ΔZBP1 MEF cells. (FIG. 5B) Quantification of A-RNA and Z-Nucleic acids. […] Plots of signal intensity are mean±SEM, two-tailed unpaired Student's t test *p<0.05, ***p<0.001, ****p<0.0001. 18 hours of PlaB treatment for IF, WB and rescue experiments. IF: 5 nM PlaB, WB and rescue experiments: 2.5 nM PlaB.
# as §2
# H82 cells = assay: MAVS knock out rescue of PlaB-mediated cell death, H82; format: cell-based; details: MAVS KO H82; data not shown
# Excerpt: as §3
# H446 SCLC cells [8] = assay: Cell survival after PlaB treatment, H446; format: cell-based, human
# Protocol: as §7, §8
# H82 SCLC cells [9] = assay: Cell survival after PlaB treatment, H82; format: cell-based
# Protocol: as §7, §8
# WT MEF cells = assay: Survival of PlaB treated MEF WT; format: cell-based, mouse
# Protocol: as §1, §2
# MEF ΔZα cells = assay: pMLKL western blot / necroptosis, MEF ΔZα; format: cell-based, mouse; details: 2.5 nM PlaB, 18 hours
# Protocol: as §9, §2
# MEF cells = assay: A-RNA and Z-NA in MEF after PlaB with or without nucleases; format: cell-based, mouse
# Protocol: FIG. 11A-11B: Analysis of Z-NA and A-RNA sources. (FIG. 11A) […] A-Nucleic acid accumulation in MEF cells after treatment with PlaB with or without Dnasel, RnaseA, or Rnase H. (FIG. 11B) Quantification of A-RNA and Z-Nucleic acids in treated cells. MEF EV refers to MEF cells treated with an empty vector.
# The increases in A-RNA and Z-NA was further analyzed in MEF cells. Cells were treated with PlaB alone, or in combination with dNasel (dsDNA), rNaseA(dsRNA at [high]), or […] (DNA/RNA hybrid). […] (FIG. 11A-11B).
# [10] = nanomolar concentration of PlaB
# [11] = PlaB and dNasel, rNaseA, or RnaseH
smiles,measurement,setting,value
"CCC(O)C(C)C1OC1CC(C)C=CC=C(C)C1OC(=O)CC(O)CCC(C)(O)C(OC(C)=O)C=CC1C (stereo not shown) [PlaB, Pladienolide B]",time after treatment at which cells began dying,MEF Flag-ZBP1 cells [1]; MEF Flag-ZBP1,≤ 24 h
same,survival,"MEF Flag-ZBP1 cells [1]; MEF Flag-ZBP1, after 24 hours",20%
same,rescue of PlaB-mediated cell death by MAVS knock out,H446 cells [2],only minimally rescue
same,PD-L1 expression,H82 SCLC cells [3],effectively upregulates
same,antigen expression,H82 SCLC cells [3],effectively upregulates
same,A-RNA level,"H446 cells [4]; 6 hours, mouse J2 antibody, H446",robust induction
same,Z-NA level,"H446 cells [4]; 6 hours, rabbit Z22 antibody, H446",significant increase
same,accumulation of A-RNA,"H446 cells [4]; low dose, J2 antibody",induces accumulation
same,accumulation of Z-Nucleic acids,"H446 cells [4]; low dose, Z22 antibody",induces accumulation
same,RIPK1 protein level,SCLC cell lines,dropped considerably
same,ZBP1 protein,SCLC cell lines,increased; also recorded: slight increase
same,cleaved-PARP protein,SCLC cell lines,increased
same,pH2AX protein,SCLC cell lines,increased
same,PD-L1 expression,H446 SCLC cells [5],effectively upregulates
same,antigen expression,H446 SCLC cells [5],effectively upregulates
same,cell survival upon RIPK1 depletion,H82 SCLC cells [6],rescues
same,pMLKL (necroptosis),MEF Flag-ZBP1 cells [7],triggered pMLKL; also recorded: induction of pMLKL
same,rescue of PlaB-mediated cell death by MAVS knock out,H82 cells,only minimally rescue
same,cell survival,"H446 SCLC cells [8]; 72 hours of PlaB, H446",drastically reduces cell survival; also recorded: dramatically reduces SCLC cell survival
same,sensitivity to SF3B1 inhibition,H446 SCLC cells [8]; [10],particularly sensitive
same,cell survival,"H82 SCLC cells [9]; 72 hours of PlaB, H82",drastically reduces cell survival; also recorded: dramatically reduces SCLC cell survival
same,sensitivity to SF3B1 inhibition,H82 SCLC cells [9]; [10],particularly sensitive
same,time after treatment at which cells began dying,WT MEF cells,≤ 24 h
same,pMLKL (necroptosis),MEF ΔZα cells; MEF ΔZα,not triggered
same,PlaB-mediated necroptosis,MEF ΔZα cells; MEF ΔZα mutant,avoid PlaB-mediated necroptosis
same,A-RNAs and Z-nAs,MEF cells; PlaB alone,increase in both A-RNAs and Z-nAs
same,A-RNAs and Z-nAs,MEF cells; [11],still showed an increase in A-RNAs and Z-nAs
same,increase in A-RNAs relative to PlaB alone,MEF cells; [11],not as robust as PlaB alone
